Counter-ions that a name gives are not always drawn.
How the values were obtained:
[1] = system: Hartley male guinea pig, urethane anesthesia; test: Urine flow dynamic parameters with oxybutynin and compound A (Example 6); format: in vivo; conditions: oxybutynin 1 mg/kg
Procedure: A Hartley male guinea pig with a body weight of about 500 g (Japan SLC Hamamatsu) was used. After urethane anesthesia (1.4 g/kg, i.p.), the medial incision of the lower abdomen was carried out, and the bladder was exposed. Two injection needles (20G) with which a polyethylene tube (PE-100, Becton Dickinson, Franklin Lakes, N.J., USA) was linked were inserted in the bladder, and one needle was used for injection of saline and another needle was used for measurement of the inner pressure of the bladder. Further, a cannula (PE-10, Becton Dickinson) for injection of phenylephrine was inserted in right common jugular vein. […] The amount of urine eliminated was measured by an electronic weighing machine (GX-400, A&D, Tokyo) and the inner pressure of the bladder was measured using a pressure transducer (AP641G, NIPPON KODEN Corporation, Tokyo). The analogue data of the weight of urine and the inner pressure of the bladder were inputted in a multi-channel data analyzer (MP-100A-CE, Biopac systems), and analyzed by a proprietary software (Acqknowledge 3.7.1, Biopac systems). The sampling interval of data was 0.1 sec and a low pass filter was applied to the data of discharge amount and urine flow rate at 0.5 Hz in order to remove noise. A delay time of 0.1 sec in weighing the urine was rectified, and the urine flow rate was determined by differentiating the value of discharge amount. The dynamic state parameter of the flow of urine below was measured. A bladder volume, the maximum urine flow rate, urination efficiency (=amount of urination/bladder volume). The effect of oxybutynin was analyzed by the paired t calibration and the concomitant use effect of the compound A was analyzed by Dunnett calibration.

male SD rat = test: Acetylcholine inductive salivation in rat (Example 5); format: in vivo; conditions: for Amount of saliva secreted: rat
Procedure: (§1) A male SD rat (CLEA Japan Inc.) with a body weight of about 400 g or a Hartley male guinea pig with a body weight of 400 to 500 g (Japan SLC) were used. After urethane anesthesia, sanitary cotton preliminarily weighed was inserted in the mouth of the animal and acetylcholine was intravenously administrated. After 5 minutes, the sanitary cotton was taken out to be weighed and the amount of saliva secreted was measured. The drug was intravenously administrated at 10 min before the administration of acetylcholine. The effect of oxybutynin was analyzed by paired t calibration and the concomitant use effect of the compound A was analyzed by William calibration.

Hartley male guinea pig = test: Acetylcholine inductive salivation in guinea pig (Example 5); format: in vivo
Procedure: as §1

[2] = biological target: T1, butyrylcholine esterase of human serum origin (Homo sapiens, UniProt P06276); test: biochemical; format: biochemical; conditions: mean value of twice tests; read-out: BuChE IC50
T1 construct: butyrylcholine esterase of human serum origin; purchased Biogenesis, Poole, UK; host or cells: human serum
T1 sequence (P06276 29-602): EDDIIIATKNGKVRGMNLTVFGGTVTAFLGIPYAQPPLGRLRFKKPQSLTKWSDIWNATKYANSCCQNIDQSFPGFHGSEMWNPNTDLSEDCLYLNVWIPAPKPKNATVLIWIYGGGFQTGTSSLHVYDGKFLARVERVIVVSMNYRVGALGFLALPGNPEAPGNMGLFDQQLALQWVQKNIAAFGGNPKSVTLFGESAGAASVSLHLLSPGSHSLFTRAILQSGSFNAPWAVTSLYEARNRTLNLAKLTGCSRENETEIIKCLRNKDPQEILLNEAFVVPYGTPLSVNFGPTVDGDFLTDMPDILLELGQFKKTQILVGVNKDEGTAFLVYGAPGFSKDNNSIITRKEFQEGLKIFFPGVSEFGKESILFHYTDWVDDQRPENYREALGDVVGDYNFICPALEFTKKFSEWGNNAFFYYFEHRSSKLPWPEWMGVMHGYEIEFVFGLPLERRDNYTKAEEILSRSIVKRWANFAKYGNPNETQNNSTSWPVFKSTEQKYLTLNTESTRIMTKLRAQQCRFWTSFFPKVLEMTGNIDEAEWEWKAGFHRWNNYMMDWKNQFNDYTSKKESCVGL

[3] = biological target: T2, acetylcholine esterase of human erythrocyte origin (Homo sapiens, UniProt P22303); test: biochemical; format: biochemical
T2 construct: acetylcholine esterase of human erythrocyte origin; purchased Sigma, St. Louis, Mo., USA; host or cells: human erythrocytes
T2 sequence (P22303 32-617 isoform P22303-2 limits assumed): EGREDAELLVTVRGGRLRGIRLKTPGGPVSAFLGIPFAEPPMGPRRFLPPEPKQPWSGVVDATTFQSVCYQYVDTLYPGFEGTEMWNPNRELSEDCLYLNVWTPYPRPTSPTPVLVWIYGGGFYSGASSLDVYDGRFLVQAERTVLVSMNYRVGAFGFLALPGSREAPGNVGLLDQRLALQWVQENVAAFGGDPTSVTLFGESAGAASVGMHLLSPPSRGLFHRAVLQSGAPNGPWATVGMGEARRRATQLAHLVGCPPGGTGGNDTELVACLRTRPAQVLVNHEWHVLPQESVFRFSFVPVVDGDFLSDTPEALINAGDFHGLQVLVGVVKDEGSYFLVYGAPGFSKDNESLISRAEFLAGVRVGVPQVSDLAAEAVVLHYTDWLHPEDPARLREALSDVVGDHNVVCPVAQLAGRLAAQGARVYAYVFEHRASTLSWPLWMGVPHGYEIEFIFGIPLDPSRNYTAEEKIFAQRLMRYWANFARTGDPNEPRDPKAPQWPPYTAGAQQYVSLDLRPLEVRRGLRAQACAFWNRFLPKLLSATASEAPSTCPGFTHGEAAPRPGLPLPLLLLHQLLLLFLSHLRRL

[4] = system: Hartley male guinea pig, urethane anesthesia; test: Pressure/flow study using guinea pig under continuous phenylephrine (Example 4); format: in vivo; conditions: 0.03 mg/kg, i.v.; phenylephrine 3 μg/animal/min
Procedure: A parameter (the maximum urine flow rate) at urination and a parameter (bladder compliance) at the collection of urine were also measured by a method similar as Example 3 shown below, with respect to the compounds B1 to B6 ([Table 8]).
A Hartley male guinea pig of 4 to 5 weeks old (Japan SLC) was used. After urethane anesthesia, the medial incision of the lower abdomen was carried out, and the bladder was exposed. Two injection needles (20G) with which a polyethylene tube (PE-100) was linked were inserted in the bladder, and one needle was used for injection of saline and another needle was used for measurement of the inner pressure of the bladder. A catheter was inserted in fernoral vein, and phenylephrine was continuously administrated at a flow rate of 3 μg/animal/min. Saline was continuously injected at a speed of 18 mL/h, the injection was stopped after intermittent urination was confirmed 2 times at minimum, and the saline in the bladder was removed by suction. Injection was started again, and the injection was stopped when the raise of the inner pressure of the bladder just before urination was confirmed. The amount of urine eliminated was measured by an electronic weighing machine and the inner pressure of the bladder was measured using a pressure transducer. The analogue data of the weight of urine and the inner pressure of the bladder were inputted in a multi-channel data analyzer (MP-100A-CE, Biopac systems), and analyzed by a proprietary software (Acqknowledge, Biopac systems). As the parameters, the maximum urine flow rate and bladder compliance were measured. Saline in the bladder was extracted after 10 min of the intravenous administration of the compound, and injection was started again to carry out measurement. The compounds were dissolved with DMSO so that administration volume was 0.5 mL/kg. The change rate of respective parameters before and after administration of the compounds was calculated and the calibration of significant difference was carried out by a solvent administration group and t calibration.

[5] = acetylcholine 1 mg/kg alone, 5 minutes

`CCN(CC)CC#CCOC(=O)C(O)(c1ccccc1)C1CCCCC1` (centres unmarked) [Oxybutynin] was tested, and the “Bladder volume, proportion for value before administration (%)” value ([1]; iv alone) was 28.87 ± 7.01 %, the “Maximum urine flow rate, proportion for value before administration (%)” value ([1]; iv alone) was −44.42 ± 9.44 % and the “Urination efficiency, proportion for value before administration (%)” value ([1]; iv alone) was −66.14 ± 5.91 %. For the same molecule, the “action on bladder volume, maximum urine flow rate and urination efficiency” value ([1]; compound A 0.003, 0.01 mg/kg with oxybutynin) was “significant increase of bladder volume and the lowering of the maximum urine flow rate and urination efficiency were confirmed”, the “action on acetylcholine-induced secretion of saliva” value (male SD rat; rat and guinea pig (Tables 9 and 10)) was “significantly suppressed” and the “Amount of saliva secreted” value (male SD rat; oxybutynin 0.1 mg/kg + acetylcholine 1 mg/kg) was 0.17 ± 0.02 g. For the same molecule, the “Amount of saliva secreted” value (Hartley male guinea pig; oxybutynin 1 mg/kg + acetylcholine 1 mg/kg) was 0.11 ± 0.02 g.
With `CC(=O)OCC[N+](C)(C)C` [Acetylcholine] the “Amount of saliva secreted” value (male SD rat; [5]) was 0.27 ± 0.04 g and the “Amount of saliva secreted” value (Hartley male guinea pig; [5]) was 0.23 ± 0.03 g.
Work on `COc1ccccc1CCNCCCCC(=O)c1ccc2c(c1)n(C)c(=O)n2C` [Compound B5, 5-[5-[[2-(2-methoxyphenyl)ethyl]amino]pentanoyl]-1,3-dimethyl-1,3-dihydro-2H-benzoimidazol-2-one) hydrochloride] yielded an IC50 [2] of over 10 µM, a Selectivity b/a ([3]; BuChE IC50/AChE IC50 (Table 3)) of over 150 and an IC50 ([3]; mean value of twice tests, read-out: AchE IC50) of 0.065 µM. The “Bladder compliance, proportion for value before administration” value [4] was 95.0 ± 4.3 and the “Maximum urine flow rate, proportion for value before administration” value [4] was 135.5 ± 19.1.

Reference: patent US20070021391A1, “Preventive/remedy for urinary disturbance” (priority 2003, published 2007)
